Results filed as inconclusive are left out.
Tested on: HT29 HRAS cells, caspase 3/7 luminescence, apoptosis
Experiment: caspase 3/7 activation in HT29 HRAS cells, mechanism study for HRAS target identification, cell-based, caspase 3/7 luminescence, multiple timepoints, dry powder (AID 652070)
Details: measured here: second timepoint caspase 3/7

O=C(NCCOCCOCCOc1ccc(N(C(=O)CCl)C(C(=O)NCCc2ccccc2)c2cccs2)cc1Cl)c1ccc(COC2C#CCCCCC2)cc1 (stereo unspecified)
AC40: > 35 µM

From PubChem BioAssay AID652070 (Broad Institute, 2013)
